# Measured values reported in patent publication US11667602B2, “Compounds and their use” (AstraZeneca AB, priority 2020, dated 2023).
# Target: T1, human RXFP1 (Homo sapiens, UniProt Q9HBX9)
# T1 sequence (Q9HBX9 1-757): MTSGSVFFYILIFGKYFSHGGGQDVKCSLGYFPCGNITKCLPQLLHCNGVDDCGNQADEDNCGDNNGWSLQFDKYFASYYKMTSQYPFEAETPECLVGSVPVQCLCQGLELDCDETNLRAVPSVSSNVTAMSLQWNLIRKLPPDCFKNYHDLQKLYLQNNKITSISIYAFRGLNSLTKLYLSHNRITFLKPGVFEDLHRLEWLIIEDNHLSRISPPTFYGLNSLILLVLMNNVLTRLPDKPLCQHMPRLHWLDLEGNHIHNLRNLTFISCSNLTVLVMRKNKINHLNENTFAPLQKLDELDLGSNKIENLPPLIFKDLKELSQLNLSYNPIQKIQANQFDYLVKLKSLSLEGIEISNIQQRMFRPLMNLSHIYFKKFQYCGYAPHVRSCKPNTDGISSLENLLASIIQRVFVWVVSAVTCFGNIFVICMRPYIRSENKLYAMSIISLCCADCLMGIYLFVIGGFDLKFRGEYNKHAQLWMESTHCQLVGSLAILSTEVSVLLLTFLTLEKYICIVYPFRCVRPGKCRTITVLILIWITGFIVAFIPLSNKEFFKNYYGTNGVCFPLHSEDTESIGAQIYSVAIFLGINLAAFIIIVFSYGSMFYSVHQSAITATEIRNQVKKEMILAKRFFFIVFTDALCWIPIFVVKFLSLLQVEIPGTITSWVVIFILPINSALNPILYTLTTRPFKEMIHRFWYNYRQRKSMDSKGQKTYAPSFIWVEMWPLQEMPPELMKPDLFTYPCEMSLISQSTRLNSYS
# Experiment: RXFP1 Hu cAMP (Test A)
# Format: cell-based
# Set-up: expressed in transfected cells; host or cells: Jump-In T-REx CHO-K1 cells (ThermoFisher), induced with 10 ng/ml doxycycline for 24 h
# Conditions: RXFP1 Hu cAMP; for EC50: read-out: Test A EC50
# Excerpt: To screen for modulators of hRXFP1, an assay identifying compounds that stimulate cAMP production via the Gs-coupled hRXFP1 receptor was used. cAMP HiRange HTRF kit (available from CisBio Bioassays, France; catalogue number 62AM6PEJ) was employed in large according to manufacturer's recommendations for detection of cAMP. The HTRF method is a competitive immunoassay between native cAMP produced by cells and cAMP labeled with the dye d2. The tracer binding is visualized with a cryptate labeled antibody for cAMP and the signal is thus inversely proportional to the amount of produced cAMP.
# Cells: Jump-In™ T-REx™ CHO-K1 Cells (ThermoFisher) stably transfected with human RXFP1 was employed. Cells were induced to express human RXFP1 by treatment with 10 ng/ml doxycycline for 24 h. Cells were then cryopreserved for long term storage.
# HTRF detection reagents: cAMP-d2 and anti-cAMP cryptate reconstituted according to CisBio instructions were diluted 1:40 in lysis buffer provided with the HTRF-kit.
# 3. 4 μL assay buffer with 1 mM IBMX (0.5 mM final concentration) to block phosphodiesterases was added with Multidrop Combi (ThermoFisher).
# 6. 4 μL cAMP-d2 in lysis buffer was added with Multidrop Combi.
# 7. 4 μL anti-cAMP cryptate in lysis buffer was added with Multidrop Combi
# 8. 2 h incubation at room temperature
# Using a cAMP standard curve, HTRF data was converted to amount cAMP produced in the samples which was subsequentially used for calculation of concentration responses. Concentration response data were fitted with a four parameter logistic fit, the Hill equation. The results from the assay are reported in Table 36 as EC50 (μM) and Sinf (%).
# Where the assay was run multiple times for the same compound, the geometric mean is reported.
# Sinf is the fitted activity level, efficacy, at infinite concentration of test compound. To facilitate comparison of efficacy data, efficacy was normalized to % effect of the response stimulated by a saturating concentration of relaxin (1 nM). Where the assay was run multiple times for the same compound, the arithmetic mean is reported.
Compound,Test A Sinf,EC50
"COc1cc(F)c(O[C@H]2CC[C@@H](C(=O)O)CC2)cc1C(=O)N[C@@H]1[C@H](C(=O)Nc2ccc(F)c(C(F)(F)F)c2)[C@H]2C=C[C@@H]1C2 [Example 501, (1R,4s)-4-(2-Fluoro-5-(((1S,2S,3R,4R)-3-((4-fluoro-3-(trifluoromethyl)phenyl)carbamoyl)bicyclo[2.2.1]hept-5-en-2-yl)carbamoyl)-4-methoxyphenoxy)cyclohexane-1-carboxylic acid]",82%,
"COc1cc(F)c(O[C@H]2CC[C@@](C)(C(=O)O)CC2)cc1C(=O)N[C@@H]1[C@H]2CC[C@H](C2)[C@@H]1C(=O)NC1CCCC1(C)C (relative stereo) [Example 503, (1S,4s)-4-(5-(((1S,2R,3S,4R)-3-(((R*)-2,2-Dimethylcyclopentyl)carbamoyl)bicyclo[2.2.1]heptan-2-yl)carbamoyl)-2-fluoro-4-methoxyphenoxy)-1-methylcyclohexane-1-carboxylic acid]",102%,60 nM
COc1cc(F)c(O[C@H]2CC[C@@](C)(C(=O)O)CC2)cc1C(=O)N[C@@H]1[C@H]2CC[C@H](C2)[C@@H]1C(=O)NCC(F)(F)C(F)(F)F [Example 618],93%,100 nM
"(1R,4s)-4-(2-Fluoro-4-methoxy-5-(((3S*,4R*)-4-(((1-methylcyclobutyl)methyl)carbamoyl)tetrahydrofuran-3-yl)carbamoyl)phenoxy)-1-(hydroxymethyl)cyclohexane-1-carboxylic acid [Example 581]",94%,
COc1cc(F)c(-c2ccc(C(=O)O)cc2)cc1C(=O)N[C@@H]1CCC[C@@H]1C(=O)Nc1cccc(S(=O)(=O)C(F)(F)F)c1 (racemic) [Example 299],81%,
COc1cc(F)c(-c2ccc(C(=O)O)cc2)cc1C(=O)N[C@H]1[C@@H](C(=O)Nc2ccc(F)c(C#N)c2)[C@@H]2C=C[C@H]1C2 (racemic) [Example 309],80%,4000 nM
"COc1cc(F)c(-c2cnc([C@@H]3C[C@H]3C(=O)O)cn2)cc1C(=O)N[C@@H]1[C@H]2CC[C@H](C2)[C@@H]1C(=O)Nc1cccc(S(=O)(=O)C(F)(F)F)c1 (single isomer, unassigned) [Example 263, (1R*,2R*)-2-(5-(2-Fluoro-4-methoxy-5-(((1S,2R,3S,4R)-3-((3-((trifluoromethyl)sulfonyl)phenyl)carbamoyl)bicyclo[2.2.1]heptan-2-yl)carbamoyl)phenyl)pyrazin-2-yl)cyclopropane-1-carboxylic acid]",106%,84 nM
COc1cc(F)c(O[C@H]2CC[C@@](C)(C(=O)O)CC2)cc1C(=O)N[C@@H]1CCO[C@@H]1C(=O)Nc1cccc(S(=O)(=O)C(F)(F)F)c1 [Example 356],119%,
COc1cc(F)c(O[C@H]2CC[C@@](CO)(C(=O)O)CC2)cc1C(=O)N[C@@H]1[C@@H]2CC[C@@H](C2)[C@@H]1C(=O)Nc1cccc(S(=O)(=O)C(F)(F)F)c1 (racemic) [Example 366],103%,2.2 nM
Cn1ncc2c(O[C@H]3CC[C@@](C)(C(=O)O)CC3)cc(C(=O)N[C@@H]3[C@H]4CC[C@H](C4)[C@@H]3C(=O)NCC3(C)CCC3)cc21 [Example 379],100%,480 nM
COc1cc(F)c(-c2cc(C(=O)O)ccn2)cc1C(=O)N[C@H]1[C@@H](C(=O)Nc2cccc(S(=O)(=O)C(F)(F)F)c2)[C@@H]2C=C[C@H]1C2 (racemic) [Example 277],122%,7400 nM
"COc1cc(F)c(-c2ccc(OCCCC(=O)O)cc2)cc1C(=O)N[C@@H]1[C@H]2CC[C@H](C2)[C@@H]1C(=O)Nc1cccc(S(=O)(=O)C(F)(F)F)c1 [Example 251, 4-((2′-Fluoro-4′-methoxy-5′-(((1S,2R,3S,4R)-3-((3-((trifluoromethyl)sulfonyl)phenyl)carbamoyl)bicyclo[2.2.1]heptan-2-yl)carbamoyl)-[1,1′-biphenyl]-4-yl)oxy)butanoic acid]",101%,33 nM
COc1cc(C#N)c(OCCCC(C)(C)C(=O)O)cc1C(=O)N[C@@H]1[C@H]2CC[C@H](C2)[C@@H]1C(=O)NCC1(C)CCC1 [Example 431],115%,130 nM
COc1cc(F)c(O[C@H]2CC[C@@](C)(C(=O)O)CC2)cc1C(=O)N[C@@H]1[C@H]2CC[C@H](C2)[C@@H]1C(=O)NCC1(C(F)(F)F)CC1 [Example 614],96%,
"O=C(O)c1ccc(-c2cc(C(=O)N[C@H]3[C@@H](C(=O)Nc4cccc(S(=O)(=O)C(F)(F)F)c4)[C@@H]4C=C[C@H]3C4)ccc2F)cc1 (racemic) [Example 305, rac-2′-Fluoro-5′-(((1R,2R,3S,4S)-3-((3-((trifluoromethyl)sulfonyl)phenyl)carbamoyl)bicyclo[2.2.1]hept-5-en-2-yl)carbamoyl)-[1,1′-biphenyl]-4-carboxylic acid]",,> 40000 nM
COc1cc(F)c(O[C@H]2CC[C@@H](C(=O)O)CC2)cc1C(=O)N[C@H]1[C@@H](C(=O)Nc2cccc(S(=O)(=O)C(F)(F)F)c2)[C@@H]2C=C[C@H]1C2 (racemic) [Example 495],98%,120 nM

# Continued, values first:
Test A Sinf,EC50,Compound
99%,560 nM,COc1cc(C#N)c(O[C@H]2CC[C@@](C)(C(=O)O)CC2)cc1C(=O)N[C@@H]1[C@H]2CC[C@H](C2)[C@@H]1C(=O)N[C@@H](C)C(C)(C)C [Example 119]
93%,34 nM,COc1cc(F)c(O[C@H]2CC[C@@](C)(C(=O)O)CC2)cc1C(=O)N[C@@H]1COC[C@@H]1C(=O)Nc1ccc(F)c(S(F)(F)(F)(F)F)c1 (racemic) [Example 344]
107%,720 nM,COc1cc(C#N)c(O[C@H]2CC[C@@](C)(C(=O)O)CC2)cc1C(=O)N[C@@H]1[C@H]2CC[C@H](C2)[C@@H]1C(=O)NCc1ccc(F)c(F)c1 [Example 123]
170%,130 nM,COc1cc(C#N)c(O[C@H]2CC[C@@](C)(C(=O)O)CC2)cc1C(=O)Nc1cc(Cl)ccc1C(=O)NC12CC(C1)C2 [Example 161]
104%,180 nM,COc1cc(C#N)c(O[C@H]2CC[C@@](C)(C(=O)O)CC2)cc1C(=O)N[C@@H]1[C@H]2CC[C@H](C2)[C@@H]1C(=O)NC1CC(F)(F)C1 [Example 623]
151%,67 nM,CCC(C)(C)NC(=O)c1ccc(Cl)cc1NC(=O)c1cc(O[C@H]2CC[C@@](C)(C(=O)O)CC2)c(C#N)cc1OC [Example 163]
,> 40000 nM,"COc1cc(F)c(O[C@H]2CC[C@@](C)(C(=O)O)CC2)cc1C(=O)NC1COCC1C(=O)Nc1cccc(S(=O)(=O)C(F)(F)F)c1 (single isomer, unassigned) [Example 560, (1R,4s)-4-(2-Fluoro-4-methoxy-5-(((3S*,4R*)-4-((3-((trifluoromethyl)sulfonyl)phenyl)carbamoyl)tetrahydrofuran-3-yl)carbamoyl)phenoxy)-1-methylcyclohexane-1-carboxylic acid]"
125%,78 nM,COc1cc(C#N)c(O[C@H]2CC[C@@](C)(C(=O)O)CC2)cc1C(=O)Nc1cc(Cl)ccc1C(=O)NC[C@H]1C[C@@H](C)C1 [Example 159]
